{
  "source": "patent US5162330A",
  "about": "“Dynemicin C antibiotic, its triacetyl derivative and pharmaceutical composition containing same” (Bristol-Myers Squibb Co., priority 1990, dated 1992)",
  "key": {"E. cloacae IPM-12": {"system": "E. cloacae IPM-12", "assay": "In vitro antibacterial MIC", "type": "cell-based", "settings": "Enterobacter cloacae, IPM12, pH 7; E. cloacae IPM-12; nutrient agar pH7, 32° C., 18 hours; read-out: MIC", "experimental": "(§1) The minimum inhibitory concentration (MIC) was determined by a two-fold serial tube dilution method using nutrient agar (pH7, Difco containing 10^5 cfu/ml)."}, "E. coli 255": {"system": "E. coli 255", "assay": "In vitro antibacterial MIC", "type": "cell-based", "settings": "Escherichia coli, pH 7; E. coli 255; nutrient agar pH7, 32° C., 18 hours; read-out: MIC", "experimental": "as §1"}, "E. coli Juhl A15119": {"system": "E. coli Juhl A15119", "assay": "In vitro antibacterial MIC", "type": "cell-based", "settings": "Escherichia coli, JUHLA15119, pH 7; E. coli Juhl A15119; nutrient agar pH7, 32° C., 18 hours; read-out: MIC", "experimental": "as §1"}, "E. faecalis A9808": {"system": "E. faecalis A9808", "assay": "In vitro antibacterial MIC", "type": "cell-based", "settings": "Enterococcus faecalis, pH 7; E. faecalis A9808; nutrient agar pH7, 32° C., 18 hours; read-out: MIC", "experimental": "as §1"}, "E. faecium A24817": {"system": "E. faecium A24817", "assay": "In vitro antibacterial MIC", "type": "cell-based", "settings": "Enterococcus faecium, pH 7, nutrient agar pH7, 32° C., 18 hours", "experimental": "as §1"}, "K. pneumoniae PCI 602": {"system": "K. pneumoniae PCI 602", "assay": "In vitro antibacterial MIC", "type": "cell-based", "settings": "Klebsiella pneumoniae, PCI602, pH 7; K. pneumoniae PCI 602; nutrient agar pH7, 32° C., 18 hours; read-out: MIC", "experimental": "as §1"}, "M. luteus PCI 1001": {"system": "M. luteus PCI 1001", "assay": "In vitro antibacterial MIC", "type": "cell-based", "settings": "Micrococcus luteus, PCI1001, pH 7, nutrient agar pH7, 32° C., 18 hours", "experimental": "as §1"}, "M. morganii I510": {"system": "M. morganii I510", "assay": "In vitro antibacterial MIC", "type": "cell-based", "settings": "Morganella morganii, pH 7; M. morganii I510; nutrient agar pH7, 32° C., 18 hours; read-out: MIC", "experimental": "as §1"}, "P. aeruginosa A20599": {"system": "P. aeruginosa A20599", "assay": "In vitro antibacterial MIC", "type": "cell-based", "settings": "Pseudomonas aeruginosa, pH 7; P. aeruginosa A20599; nutrient agar pH7, 32° C., 18 hours; read-out: MIC", "experimental": "as §1"}, "P. aeruginosa A9843A": {"system": "P. aeruginosa A9843A", "assay": "In vitro antibacterial MIC", "type": "cell-based", "settings": "Pseudomonas aeruginosa, 18 h, pH 7", "experimental": "as §1"}, "P. aeruginosa IPM-8": {"system": "P. aeruginosa IPM-8", "assay": "In vitro antibacterial MIC", "type": "cell-based", "settings": "Pseudomonas aeruginosa, IPM8, pH 7; P. aeruginosa IPM-8; nutrient agar pH7, 32° C., 18 hours; read-out: MIC", "experimental": "as §1"}, "P. aeruginosa IPM-9": {"system": "P. aeruginosa IPM-9", "assay": "In vitro antibacterial MIC", "type": "cell-based", "settings": "Pseudomonas aeruginosa, IPM9, pH 7; P. aeruginosa IPM-9; nutrient agar pH7, 32° C., 18 hours; read-out: MIC", "experimental": "as §1"}, "P. aeruginosa KKA19": {"system": "P. aeruginosa KKA19", "assay": "In vitro antibacterial MIC", "type": "cell-based", "settings": "Pseudomonas aeruginosa, pH 7, nutrient agar pH7, 32° C., 18 hours", "experimental": "as §1"}, "P. cepecia A21213": {"system": "P. cepecia A21213", "assay": "In vitro antibacterial MIC", "type": "cell-based", "settings": "18 h, pH 7", "experimental": "as §1"}, "P. cepecia No. 651": {"system": "P. cepecia No. 651", "assay": "In vitro antibacterial MIC", "type": "cell-based", "settings": "18 h, pH 7", "experimental": "as §1"}, "P. mirabilis IFO 3849": {"system": "P. mirabilis IFO 3849", "assay": "In vitro antibacterial MIC", "type": "cell-based", "settings": "Proteus mirabilis, IFO3849, pH 7; P. mirabilis IFO 3849; nutrient agar pH7, 32° C., 18 hours; read-out: MIC", "experimental": "as §1"}, "P. rettgeri IPM-14": {"system": "P. rettgeri IPM-14", "assay": "In vitro antibacterial MIC", "type": "cell-based", "settings": "Providencia rettgeri, IPM14, pH 7; P. rettgeri IPM-14; nutrient agar pH7, 32° C., 18 hours; read-out: MIC", "experimental": "as §1"}, "P. vulgaris IPM-13": {"system": "P. vulgaris IPM-13", "assay": "In vitro antibacterial MIC", "type": "cell-based", "settings": "Proteus vulgaris, IPM13, pH 7; P. vulgaris IPM-13; nutrient agar pH7, 32° C., 18 hours; read-out: MIC", "experimental": "as §1"}, "S. aureus A15036 (MRSA)": {"system": "S. aureus A15036 (MRSA)", "assay": "In vitro antibacterial MIC", "type": "cell-based", "settings": "Staphylococcus aureus, 18 h, pH 7", "experimental": "as §1"}, "S. aureus IPM-24 (MRSA)": {"system": "S. aureus IPM-24 (MRSA)", "assay": "In vitro antibacterial MIC", "type": "cell-based", "settings": "Staphylococcus aureus, 18 h, pH 7", "experimental": "as §1"}, "S. aureus smith": {"system": "S. aureus smith", "assay": "In vitro antibacterial MIC", "type": "cell-based", "settings": "Staphylococcus aureus, pH 7; S. aureus smith; two-fold serial dilution, nutrient agar pH7, 32° C., 18 hours; read-out: MIC", "experimental": "as §1"}, "S. epidermidis 11-1230": {"system": "S. epidermidis 11-1230", "assay": "In vitro antibacterial MIC", "type": "cell-based", "settings": "Staphylococcus epidermidis, 111230, pH 7; S. epidermidis 11-1230; nutrient agar pH7, 32° C., 18 hours; read-out: MIC", "experimental": "as §1"}, "S. marcescens IPM-15": {"system": "S. marcescens IPM-15", "assay": "In vitro antibacterial MIC", "type": "cell-based", "settings": "Serratia marcescens, IPM15, pH 7; S. marcescens IPM-15; nutrient agar pH7, 32° C., 18 hours; read-out: MIC", "experimental": "as §1"}, "S. marcescens IPM-16": {"system": "S. marcescens IPM-16", "assay": "In vitro antibacterial MIC", "type": "cell-based", "settings": "Serratia marcescens, IPM16, 18 h, pH 7", "experimental": "as §1"}, "X. maltophilia GN12873": {"system": "X. maltophilia GN12873", "assay": "In vitro antibacterial MIC", "type": "cell-based", "settings": "Stenotrophomonas maltophilia, pH 7, nutrient agar pH7, 32° C., 18 hours", "experimental": "as §1"}, "X. maltophilia No. 661": {"system": "X. maltophilia No. 661", "assay": "In vitro antibacterial MIC", "type": "cell-based", "settings": "Stenotrophomonas maltophilia, pH 7, nutrient agar pH7, 32° C., 18 hours", "experimental": "as §1"}, "[1]": {"system": "Candida albicans ATCC 38247", "assay": "In vitro antifungal MIC", "type": "cell-based", "settings": "ATCC38247, pH 7; Candida albicans ATCC 38247, amphotericin resistant strain; yeast morphology agar pH7.0, 28° C., 40 hours; read-out: MIC", "experimental": "(§2) The antifungal MICs of dynemicin C and its triacetate were determined by an agar dilution method on yeast morphology agar adjusted to pH7.0 with 1/15M phosphate buffer. A 5 μl aliquot of fungal suspension containing 10^6 cells/ml was inoculated onto the surface of the antibiotic-containing agar plates with a multiinoculator."}, "[2]": {"system": "Cryptococcus neoformans D49", "assay": "In vitro antifungal MIC", "type": "cell-based", "settings": "Cryptococcus neoformans, D49, 40 h, pH 7", "experimental": "as §2"}, "C. neoformans IAM4514": {"system": "C. neoformans IAM4514", "assay": "In vitro antifungal MIC", "type": "cell-based, Cryptococcus neoformans", "settings": "Cryptococcus neoformans, IAM4514, 40 h, pH 7", "experimental": "as §2"}, "[3]": {"system": "B16-F10 (murine melanoma) cells", "assay": "In vitro cytotoxicity", "type": "cell-based", "settings": "Mus musculus, 72 hours, 37° C., neutral red, 540 nm", "experimental": "Dynemicin C and its triacetate derivative were tested for in vitro cytotoxicity against murine and human tumor cell lines. Dynemicin A and its triacetate derivative were used as reference compounds. B16-F10 (murine melanoma) cells were grown to the logarithmic phase in enriched Eagle minimum essential medium (MEM) supplemented with fetal calf serum (FCS, 10%) and kanamycin (60 mcg/ml) and HCT-116 (human colon carcinoma) cells in Maccoy's 5A medium supplemented with FCS (10%), penicillin (100 μ/ml) and streptomycin (100 mcg/ml), and were harvested and inoculated into wells of the 96- or 24-well tissue culture plate with test materials at concentrations of 1.5×10^4, 1.3×10^4, 1.3×10^4, 2.5×10^4 and 3.0×10^4 cells/ml., respectively. They were incubated at 37° C. in a humidified atmosphere of 5% CO2 and 95% air for 72 hours. The cytotoxic activities were determined colorimetrically at 540 nm after staining viable cells with 0.006% neutral red solution."}},
  "data": [
    {"smiles": "NCC[C@H](O)C(=O)N[C@@H]1C[C@H](N)[C@@H](O[C@H]2O[C@H](CN)[C@@H](O)[C@H](O)[C@H]2O)[C@H](O)[C@H]1O[C@H]1O[C@H](CO)[C@@H](O)[C@H](N)[C@H]1O", "note": "[Amikacin, reference compound]", "values": [
      {"measurement": "MIC", "setting": "E. cloacae IPM-12", "value": 25, "unit": "mg/L"},
      {"measurement": "MIC", "setting": "E. coli 255", "value": 6.3, "unit": "mg/L"},
      {"measurement": "MIC", "setting": "E. coli Juhl A15119", "value": 12.5, "unit": "mg/L"},
      {"measurement": "MIC", "setting": "E. faecalis A9808", "value": 50, "unit": "mg/L"},
      {"measurement": "MIC", "setting": "E. faecium A24817", "value": 100, "unit": "mg/L"},
      {"measurement": "MIC", "setting": "K. pneumoniae PCI 602", "value": 1.6, "unit": "mg/L"},
      {"measurement": "MIC", "setting": "M. luteus PCI 1001", "value": 3.1, "unit": "mg/L"},
      {"measurement": "MIC", "setting": "M. morganii I510", "value": 25, "unit": "mg/L"},
      {"measurement": "MIC", "setting": "P. aeruginosa A20599", "value": 1.6, "unit": "mg/L"},
      {"measurement": "MIC", "setting": "P. aeruginosa A9843A", "value": 3.1, "unit": "mg/L"},
      {"measurement": "MIC", "setting": "P. aeruginosa IPM-8", "value": 6.3, "unit": "mg/L"},
      {"measurement": "MIC", "setting": "P. aeruginosa IPM-9", "value": 1.6, "unit": "mg/L"},
      {"measurement": "MIC", "setting": "P. aeruginosa KKA19", "value": 3.1, "unit": "mg/L"},
      {"measurement": "MIC", "setting": "P. cepecia A21213", "value": "> 100", "unit": "mg/L"},
      {"measurement": "MIC", "setting": "P. cepecia No. 651", "value": "> 100", "unit": "mg/L"},
      {"measurement": "MIC", "setting": "P. mirabilis IFO 3849", "value": 25, "unit": "mg/L"},
      {"measurement": "MIC", "setting": "P. rettgeri IPM-14", "value": 12.5, "unit": "mg/L"},
      {"measurement": "MIC", "setting": "P. vulgaris IPM-13", "value": 6.3, "unit": "mg/L"},
      {"measurement": "MIC", "setting": "S. aureus A15036 (MRSA)", "value": 3.1, "unit": "mg/L"},
      {"measurement": "MIC", "setting": "S. aureus IPM-24 (MRSA)", "value": 100, "unit": "mg/L"},
      {"measurement": "MIC", "setting": "S. aureus smith", "value": 1.6, "unit": "mg/L"},
      {"measurement": "MIC", "setting": "S. epidermidis 11-1230", "value": 25, "unit": "mg/L"},
      {"measurement": "MIC", "setting": "S. marcescens IPM-15", "value": 12.5, "unit": "mg/L"},
      {"measurement": "MIC", "setting": "S. marcescens IPM-16", "value": 100, "unit": "mg/L"},
      {"measurement": "MIC", "setting": "X. maltophilia GN12873", "value": "> 100", "unit": "mg/L"},
      {"measurement": "MIC", "setting": "X. maltophilia No. 661", "value": "> 100", "unit": "mg/L"}
    ]},
    {"smiles": "C[C@@H]1[C@H](O)[C@@H](C)/C=C/C=C/C=C/C=C/C=C/C=C/C=C/[C@H](O[C@@H]2O[C@H](C)[C@@H](O)[C@H](N)[C@@H]2O)C[C@@H]2O[C@](O)(C[C@@H](O)C[C@@H](O)[C@H](O)CC[C@@H](O)C[C@@H](O)CC(=O)O[C@H]1C)C[C@H](O)[C@H]2C(=O)O", "note": "[Amphotericin B, reference compound]", "values": [
      {"measurement": "MIC", "setting": "[1]", "value": 50, "unit": "mg/L"},
      {"measurement": "MIC", "setting": "[2]", "value": 0.2, "unit": "mg/L"},
      {"measurement": "MIC", "setting": "C. neoformans IAM4514", "value": 0.4, "unit": "mg/L"}
    ]},
    {"smiles": "COC1=C(C(=O)O)C(C)C23OC24c2cc(OC(C)=O)c5c(c2NC3C#CC=CC#CC14)C(=O)c1c(OC(C)=O)ccc(OC(C)=O)c1C5=O", "note": "(stereo not drawn) [Dynemicin A acetate, reference compound]", "values": [
      {"measurement": "IC50", "setting": "[3]", "value": 0.0007, "unit": "mg/L"}
    ]}
  ]
}
